Experimental data from US11685726B2, “Pharmaceutical compositions of 6-(2-(2H-tetrazol-5-yl)ethyl)-6-fluorodecahydroisoquinoline-3-carboxylic acid and ester derivatives thereof” (Sea Pharmaceuticals LLC, priority 2020, dated 2023).

Test system: NMDA receptor
Experiment: Whole cell patch-clamp recording of NMDA induced currents in pyramidal neurons of rat brain prefrontal cortex slices
Type: cell-based
Settings: Tested at 30 pM (so in the source); 50 μM NMDA; rat brain cortex slices
Protocol: Additionally biological activity of compounds as antagonists of AMPA receptors or NMDA receptors (also called ionotropic glutamate-gated ion channels) were conducted using ex vivo functional electrophysiological assays of pyramidal neurons in slices of rat brain prefrontal cortex. Effects of test compounds cf. reference compounds were studied by whole cell patch-clamp electrophysiology recordings of s-AMPA-induced currents or NMDA-induced currents, respectively, using rat brain slice prefrontal cortex (layer V) pyramidal neurons.
Male Sprague Dawley rats were supplied by Charles River Laboratories (Wilmington, Mass. USA) and were housed 4 per cage within a temperature (20.5-23.5° C.) and humidity (30-80%) controlled environment on a 12 hour light/dark cycle with access to food (Teklad Global Soy Protein, Cat. No. T.2920X10, Envigo, Indianapolis, Ind., USA) and water ad libitum. […]
All test compound experiments were carried out in the voltage-clamp recording configuration of the whole cell patch-clamp technique and all recordings performed at a holding potential of −60 mV. Recordings were monitored on a Dell personal computer (PC) running Axon pClamp software (Molecular Devices, Sunnyvale, Calif., USA) and digitized at 10 kHz. […]

O=C(O)[C@@H]1C[C@H]2C[C@@](F)(CCc3nnn[nH]3)CC[C@H]2CN1 [Compound 1, (3S,4aS,6S,8aR)-6-fluoro-6-[2-(1H-1,2,3,4-tetrazol-5-yl)ethyl]-decahydroisoquinoline-3-carboxylic acid]
% inhibition +/- SEM of NMDA induced currents in neurons: 61.0 ± 6.3 (n = 3) %
